Data on 11 compounds can be found in US20050059639A1, “Ophthalmic compositions and method for treating eye discomfort and pain” (priority 2003, published 2005).

Marks after values point to notes of the source that are not given here.

In the first data set the test system is medial canthus of the eyelids. The experiment in a line: Sensory quality of the solution on the medial canthus of the eyelids / eye surface. The note with it: solution applied on the medial canthus of the eyelids. The class given is in vivo, human. The text has this: [table] In selecting a particular analog, it is desirable to have one that has a long duration of action (several hours) and minimal stinging and burning sensations. These parameters are not predicted by the cooling effect of these substances on the human tongue, but must be determined by experiment. […] Thus, the hexyl analog is the preferred therapeutic of the two. The other particularly preferred analogs that have the desired qualities of long duration of action and absence of stinging and burning effects are identified with an asterisk in Table 1.
As for `CCCCCCCP(=O)(CCC(C)C)C(C)C` (stereo not drawn) [n-C7H15 / iso-C5H11 / iso-C3H7], the “Sensory Quality” value is reported as “cool/oily”.

With `CCCCCCCP(=O)(CCCCCCC)C(C)(C)C` [n-C7H15 / n-C7H15 / tert-C4H9], the “Sensory Quality” value is “cool/sting”.

On to `CCCCCCCCP(=O)(C(C)C)C(C)CC` (stereo not drawn) [n-C8H17 / iso-C3H7 / sec-C4H9, isopropyl, sec-butyl, n-octyl-phosphine oxide], for which the “Sensory Quality” value was “cool only”.

Turning to `CCCCCCCCP(=O)(CCCCCC)CCCCCC` [n-C8H17 / n-C6H13 / n-C6H13], the “Sensory Quality” value was “cool/sting”.

`CCCCCCCCP(=O)(C(C)CC)C(C)CC` (stereo not drawn) [n-C8H17 / sec-C4H9 / sec-C4H9]: the “Sensory Quality” value is reported as “cool/sting”.

Regarding `CCCCCCCCCP(=O)(CC(C)C)CC(C)C` [n-C9H19 / iso-C4H9 / iso-C4H9], the “Sensory Quality” value is given as “cool/sting”.

Turning to `CCCCCCCCCCP(=O)(CCC(C)C)CCC(C)C` [n-C10H21 / iso-C5H11 / iso-C5H11], the “Sensory Quality” value is “cool/sting”.

For another data set, the system named is tongue of human volunteers. The experiment in a line: Cooling sensations when applied to the tongue of human volunteers. The data set is classed as in vivo. The note with it: duration of the cooling action on the tongue. As to the method: (§1) The therapeutic concentrations of the preferred analogs are in the range of 10 to 80 μg/ml […], but concentrations as low as 0.1 μg/ml may elicit effects in sensitive individuals.
`CCCCCCCP(=O)(CCC(C)C)C(C)C` (stereo not drawn) [n-C7H15 / iso-C5H11 / iso-C3H7]: the “Duration of Action” value was determined as 5 min.

On to `CCCCCCCP(=O)(CCCCCCC)C(C)(C)C` [n-C7H15 / n-C7H15 / tert-C4H9], for which the “Duration of Action” value was determined as 10 min.

Turning to `CCCCCCCCP(=O)(C(C)C)C(C)CC` (stereo not drawn) [n-C8H17 / iso-C3H7 / sec-C4H9, isopropyl, sec-butyl, n-octyl-phosphine oxide], the “Duration of Action” value is 18 min.

In the case of `CCCCCCCCP(=O)(CCCCCC)CCCCCC` [n-C8H17 / n-C6H13 / n-C6H13], the “Duration of Action” value was found to be 10 min.

In the case of `CCCCCCCCP(=O)(C(C)CC)C(C)CC` (stereo not drawn) [n-C8H17 / sec-C4H9 / sec-C4H9], the “Duration of Action” value came out at 10 min.

Turning to `CCCCCCCCCP(=O)(CC(C)C)CC(C)C` [n-C9H19 / iso-C4H9 / iso-C4H9], the “Duration of Action” value was found to be 15 min.

On to `CCCCCCCCCCP(=O)(CCC(C)C)CCC(C)C` [n-C10H21 / iso-C5H11 / iso-C5H11], for which the “Duration of Action” value worked out at 10 min.

The same data set, now with this note: reciprocal of threshold, normalized to unity for analogs with 1.25 μg/ml.
Regarding `CCCCCCCP(=O)(CCC(C)C)C(C)C` (stereo not drawn) [n-C7H15 / iso-C5H11 / iso-C3H7], the “Relative Potency” value came out at 1.

Consider `CCCCCCCP(=O)(CCCCCCC)C(C)(C)C` [n-C7H15 / n-C7H15 / tert-C4H9], for which the “Relative Potency” value amounted to 0.06.

As for `CCCCCCCCP(=O)(C(C)C)C(C)CC` (stereo not drawn) [n-C8H17 / iso-C3H7 / sec-C4H9, isopropyl, sec-butyl, n-octyl-phosphine oxide], the “Relative Potency” value is 10.

Take `CCCCCCCCP(=O)(CCCCCC)CCCCCC` [n-C8H17 / n-C6H13 / n-C6H13]: the “Relative Potency” value is less than 0.005.

Regarding `CCCCCCCCP(=O)(C(C)CC)C(C)CC` (stereo not drawn) [n-C8H17 / sec-C4H9 / sec-C4H9], the “Relative Potency” value came out at 2.5.

Consider `CCCCCCCCCP(=O)(CC(C)C)CC(C)C` [n-C9H19 / iso-C4H9 / iso-C4H9], for which the “Relative Potency” value is 0.025.

Consider `CCCCCCCCCCP(=O)(CCC(C)C)CCC(C)C` [n-C10H21 / iso-C5H11 / iso-C5H11], for which the “Relative Potency” value is reported as less than 0.005.

Still in this data set, the particulars now being: threshold for producing cooling sensations on the tongue of human volunteers.
The compound `CCCCCCCP(=O)(CCC(C)C)C(C)C` (stereo not drawn) [n-C7H15 / iso-C5H11 / iso-C3H7] gave a Threshold of 1.25 µg/mL.

In turn, `CCCCCCCP(=O)(CCCCCCC)C(C)(C)C` [n-C7H15 / n-C7H15 / tert-C4H9] displayed a Threshold of 20 µg/mL.

The compound `CCCCCCCCP(=O)(C(C)C)C(C)CC` (stereo not drawn) [n-C8H17 / iso-C3H7 / sec-C4H9, isopropyl, sec-butyl, n-octyl-phosphine oxide] returned a Threshold of 0.1 µg/mL.

Consider `CCCCCCCCP(=O)(CCCCCC)CCCCCC` [n-C8H17 / n-C6H13 / n-C6H13], for which the Threshold is more than 250 µg/mL.

With `CCCCCCCCP(=O)(C(C)CC)C(C)CC` (stereo not drawn) [n-C8H17 / sec-C4H9 / sec-C4H9], the Threshold is 0.5 µg/mL.

`CCCCCCCCCP(=O)(CC(C)C)CC(C)C` [n-C9H19 / iso-C4H9 / iso-C4H9] came in with a Threshold of 50 µg/mL.

`CCCCCCCCCCP(=O)(CCC(C)C)CCC(C)C` [n-C10H21 / iso-C5H11 / iso-C5H11] showed a Threshold of more than 250 µg/mL.

The test system of another data set is stinging and burning sensations on the eye. The experiment in a line: Adjuncts to reduce stinging of trialkyl phosphine oxide eye drops. The class given is in vivo, human. The note with it: added to 0.2% disec-butyl-n-heptyl-phosphine oxide solution; 1.5% (0.5% for carboxymethylcellulose). As to the method:
I conclude that hydrocarbon polyols are useful adjuncts for preparing a therapeutic formulation of a trialkyl phosphine oxide eye drop solution.
A 0.2% (2.0 mg/ml) disec-butyl-n-heptyl-phosphine oxide eye drop solution was prepared by adding the compound to an isotonic solution of sodium chloride, 0.65% in deionized water, monobasic potassium phosphate/sodium hydroxide buffer, preserved with disodium EDTA and benzalkonium chloride. The liquid was individually aliquoted into a ¼ oz. bottle with a Yorker spout (E.D. Luce Packaging) suitable for droplet delivery. This solution was then applied to the closed eyes of three volunteers, with two to three drops of the solution applied to each eye. The subjects complained of stinging and burning sensations on the eye surface, lasting for about 2 min. A series of six solutions were then prepared in which six different hydrocarbon polyols were added to the parent 0.2% solution. The individual additions were 1.5% sucrose, 1.5% fructose, 1.5% dextrose, 1.5% lactose, 1.5% inositol, or 0.5% carboxymethylcellulose. […] There was some tearing, but no evidence of increased eye redness from the hydrocarbon polyols and subjective complaints of discomfort were minimal.
Regarding `O=C(CO)[C@@H](O)[C@H](O)[C@H](O)CO` [fructose], the “effect of adjunct on initial stinging sensations” value is recorded as “reduce the initial stinging sensations”.

Staying with this data set, now noted: in vivo.
As to `O[C@H]1[C@H](O)[C@@H](O)[C@H](O)[C@@H](O)[C@H]1O` [inositol], the “effect of adjunct on initial stinging sensations” value was “reduce the initial stinging sensations”.

For the compound `OC[C@H]1O[C@@H](O[C@H]2[C@H](O)[C@@H](O)C(O)O[C@@H]2CO)[C@H](O)[C@@H](O)[C@H]1O` (stereo partly drawn) [lactose], the “effect of adjunct on initial stinging sensations” value is reported as “reduce the initial stinging sensations”.

The test system is the same in the next data set. The data set is described as above. The data set is classed as in vivo, human. The note with it: 1 to 2% sucrose, other carbohydrates, 0.5% carboxymethylcellulose; sucralose at equivalent sweetening concentrations.
With `O=C(CO)[C@@H](O)[C@H](O)[C@H](O)CO` [fructose], the “effect of adjunct on stinging and burning sensations of several trialkyl phosphine oxide solutions” value is “substantially reduced”.

Staying with this data set, now noted: in vivo.
In the case of `O[C@H]1[C@H](O)[C@@H](O)[C@H](O)[C@@H](O)[C@H]1O` [inositol], the “effect of adjunct on stinging and burning sensations of several trialkyl phosphine oxide solutions” value is on record as “substantially reduced”.

`OC[C@H]1O[C@H](O[C@]2(CCl)O[C@H](CCl)[C@@H](O)[C@@H]2O)[C@H](O)[C@@H](O)[C@H]1Cl` [sucralose, reference compound]: the “effect of adjunct on stinging and burning sensations of several trialkyl phosphine oxide solutions” value was “not active”.

For another data set, the system named is eye disorders. The experiment in a line: Estimate of ideal therapeutic eye drop concentration to relieve eye disorders. The note with it: estimate of ideal therapeutic concentration applied as eye drops to relieve eye disorders. The data set is classed as in vivo, human. Here is the method:
as §1
The potency of certain specific trialkyl phosphine oxides, e.g. isopropyl, sec-butyl, n-octyl-phosphine oxide, in relieving eye discomfort is exceptionally high, on the order of 0.001%. In such situations, an alternative preferred description of an effective unit dose is 0.01 mg/ml or 10 μg/ml, which is equivalent to 0.001% weight percent.
Consider `CCCCCCCP(=O)(CCC(C)C)C(C)C` (stereo not drawn) [n-C7H15 / iso-C5H11 / iso-C3H7], for which the “Eye Therapy” value is given as 20* μg/ml.

On to `CCCCCCCP(=O)(CCCCCCC)C(C)(C)C` [n-C7H15 / n-C7H15 / tert-C4H9], for which the “Eye Therapy” value is more than 150 µg/mL.

As to `CCCCCCCCP(=O)(C(C)C)C(C)CC` (stereo not drawn) [n-C8H17 / iso-C3H7 / sec-C4H9, isopropyl, sec-butyl, n-octyl-phosphine oxide], the “Eye Therapy” value is 10* μg/ml.

With `CCCCCCCCP(=O)(CCCCCC)CCCCCC` [n-C8H17 / n-C6H13 / n-C6H13], the “Eye Therapy” value is more than 1500 µg/mL.

Take `CCCCCCCCP(=O)(C(C)CC)C(C)CC` (stereo not drawn) [n-C8H17 / sec-C4H9 / sec-C4H9]: the “Eye Therapy” value was 30 µg/mL.

Consider `CCCCCCCCCP(=O)(CC(C)C)CC(C)C` [n-C9H19 / iso-C4H9 / iso-C4H9], for which the “Eye Therapy” value is more than 250 µg/mL.

For the compound `CCCCCCCCCCP(=O)(CCC(C)C)CCC(C)C` [n-C10H21 / iso-C5H11 / iso-C5H11], the “Eye Therapy” value is more than 1500 µg/mL.

Still in this data set, the particulars now being: weight percent; equivalent to 10 μg/ml.
Take `CCCCCCCCP(=O)(C(C)C)C(C)CC` (stereo not drawn) [n-C8H17 / iso-C3H7 / sec-C4H9, isopropyl, sec-butyl, n-octyl-phosphine oxide]: the “potency in relieving eye discomfort” value is approximately 0.001%.
